We go through 46 compounds from patent US20250092016A1, “COMPOUNDS AND COMPOSITIONS FOR THE TREATMENT OF CORONAVIRAL RELATED DISEASES” (priority 2021, published 2025).

The term IC50 denotes the point on the concentration scale where inhibition reaches its midpoint.

For the assay, the target named is SARS-CoV-2 main protease (M^pro) (Severe acute respiratory syndrome coronavirus 2, UniProt P0DTD1). Put plainly: Rapid-Fire MS Biochemical Assay measuring Mpro activity (5 nM Mpro). The conditions noted are these: Table 1B, Mpro inhibition, 5 μM substrate peptide, 120 min, read-out: Rapid-Fire Assay IC50.
For the compound `N#CC1CN(c2ccc(F)cc2F)C(=O)N1c1cncc2ccccc12` (racemic) [Compound 66, 1-(2,4-difluorophenyl)-3-(isoquinolin-4-yl)-2-oxoimidazolidine-4-carbonitrile], the 50% inhibitory concentration (IC50) fell in the range of 20 to 200 nM.

Take `N#CC1CN(c2cc(C(F)(F)F)ncc2Cl)C(=O)N1c1cncc2ccccc12` (racemic) [Compound 70-1, 1-(5-chloro-2-(trifluoromethyl)pyridin-4-yl)-3-(isoquinolin-4-yl)-2-oxoimidazolidine-4-carbonitrile]: the IC50 was 20 to 200 nM.

Regarding `N#CC1CN(c2ccc(F)c(F)c2)C(=O)N1c1cncc2ccccc12` (racemic) [Compound 72, 1-(3,4-difluorophenyl)-3-(isoquinolin-4-yl)-2-oxoimidazolidine-4-carbonitrile], the IC50 is below 20 nM.

Turning to `Cc1ncccc1N1CC(C#N)N(c2cncc3ccccc23)C1=O` (racemic) [Compound 74, 3-(isoquinolin-4-yl)-1-(2-methylpyridin-3-yl)-2-oxoimidazolidine-4-carbonitrile], the IC50 was 200 to 1000 nM.

On to `Cc1cc(Cl)cnc1N1CC(C#N)N(c2cncc3ccccc23)C1=O` (racemic) [Compound 80, 1-(5-chloro-3-methylpyridin-2-yl)-3-(isoquinolin-4-yl)-2-oxoimidazolidine-4-carbonitrile], for which the IC50 lay within 20 to 200 nM.

As to `N#CC1CN(c2ccc(F)c(Cl)c2)C(=O)N1c1cncc2ccccc12` (racemic) [Compound 87, 1-(3-chloro-4-fluorophenyl)-3-(isoquinolin-4-yl)-2-oxoimidazolidine-4-carbonitrile], the IC50 is below 20 nM.

Regarding `N#CC1CN(c2cccc(OC(F)F)c2)C(=O)N1c1cncc2ccccc12` (racemic) [Compound 89, 1-(3-(difluoromethoxy)phenyl)-3-(isoquinolin-4-yl)-2-oxoimidazolidine-4-carbonitrile], the IC50 was 200 to 1000 nM.

`N#Cc1ccc(C(F)(F)F)cc1N1CC(C#N)N(c2cncc3ccccc23)C1=O` (racemic) [Compound 90, 1-(2-cyano-5-(trifluoromethyl)phenyl)-3-(isoquinolin-4-yl)-2-oxoimidazolidine-4-carbonitrile]: the IC50 was below 20 nM.

With `N#CC1CN(c2cccc(OC(F)(F)F)c2)C(=O)N1c1cncc2ccccc12` (racemic) [Compound 92, 3-(isoquinolin-4-yl)-2-oxo-1-(3-(trifluoromethoxy)phenyl)imidazolidine-4-carbonitrile], the IC50 is below 20 nM.

Turning to `COc1cc(Cl)ccc1N1CC(C#N)N(c2cncc3ccccc23)C1=O` (racemic) [Compound 103, 1-(4-chloro-2-methoxyphenyl)-3-(isoquinolin-4-yl)-2-oxoimidazolidine-4-carbonitrile], the IC50 was in the range of 20 to 200 nM.

Turning to `N#CC1CN(c2cccc(C(F)(F)F)c2)C(=O)N1c1cncc2ccccc12` (racemic) [Compound 106, 3-(isoquinolin-4-yl)-2-oxo-1-(3-(trifluoromethyl)phenyl)imidazolidine-4-carbonitrile], the IC50 is above 1000 nM.

`N#CC1CN(c2cc(F)cc(F)c2)C(=O)N1c1cncc2ccccc12` (racemic) [Compound 110, 1-(3,5-difluorophenyl)-3-(isoquinolin-4-yl)-2-oxoimidazolidine-4-carbonitrile]: the half-maximal inhibitory concentration (IC50) was below 20 nM.

In the case of `N#CC1CN(c2ccc(=O)[nH]c2)C(=O)N1c1cncc2ccccc12` (racemic) [Compound 113, 3-(isoquinolin-4-yl)-2-oxo-1-(6-oxo-1,6-dihydropyridin-3-yl)imidazolidine-4-carbonitrile], the IC50 was above 1000 nM.

Turning to `Cc1ccc(C#N)c(N2CC(C#N)N(c3cncc4ccccc34)C2=O)c1` (racemic) [Compound 116, 1-(2-cyano-5-methylphenyl)-3-(isoquinolin-4-yl)-2-oxoimidazolidine-4-carbonitrile], the IC50 is below 20 nM.

Consider `Cc1c[nH]c(N2CC(C#N)N(c3cncc4ccccc34)C2=O)n1` (racemic) [Compound 118, 3-(isoquinolin-4-yl)-1-(4-methyl-1 H-imidazol-2-yl)-2-oxoimidazolidine-4-carbonitrile], for which the IC50 lay within 200 to 1000 nM.

For `N#CC1CN(c2nc(Cl)c[nH]2)C(=O)N1c1cncc2ccccc12` (racemic) [Compound 119, 1-(4-chloro-1H-imidazol-2-yl)-3-(isoquinolin-4-yl)-2-oxoimidazolidine-4-carbonitrile], the IC50 lay within 20 to 200 nM.

On to `N#CC1CN(C2CC3(C2)CC(F)(F)C3)C(=O)N1c1cncc2ccccc12` (racemic) [Compound 127, 1-(6,6-difluorospiro[3.3]heptan-2-yl)-3-(isoquinolin-4-yl)-2-oxoimidazolidine-4-carbonitrile], for which the IC50 is below 20 nM.

On to `N#CC1CN(C2CN(CC(F)(F)F)C2)C(=O)N1c1cncc2ccccc12` (racemic) [Compound 133, 3-(isoquinolin-4-yl)-2-oxo-1-(1-(2,2,2-trifluoroethyl)azetidin-3-yl)imidazolidine-4-carbonitrile], for which the IC50 is below 20 nM.

For `N#CC1CN(C2CN(C3CC3)C2)C(=O)N1c1cncc2ccccc12` (racemic) [Compound 135, 1-(1-cyclopropylazetidin-3-yl)-3-(isoquinolin-4-yl)-2-oxoimidazolidine-4-carbonitrile], the half-maximal inhibitory concentration (IC50) was in the range of 20 to 200 nM.

Turning to `N#CC1CN(C23CC(F)(C2)C3)C(=O)N1c1cncc2ccccc12` (racemic) [Compound 139, 1-(3-fluorobicyclo[1.1.1]pentan-1-yl)-3-(isoquinolin-4-yl)-2-oxoimidazolidine-4-carbonitrile], the IC50 was 20 to 200 nM.

For the compound `COc1cc(C(F)(F)F)ccc1N1C[C@H](C#N)N(c2cncc3ccccc23)C1=O` (single isomer, unassigned) [Compound 12a], the half-inhibitory concentration (IC50) is below 20 nM.

As to `COc1cc(C(F)(F)F)ccc1N1C[C@@H](C#N)N(c2cncc3ccccc23)C1=O` (single isomer, unassigned) [Compound 12b], the IC50 is above 1000 nM.

As for `N#C[C@H]1CN(c2cnnc(C(F)(F)F)c2)C(=O)N1c1cncc2ccccc12` (single isomer, unassigned) [Compound 13a], the IC50 is below 20 nM.

Consider `N#C[C@@H]1CN(c2cnnc(C(F)(F)F)c2)C(=O)N1c1cncc2ccccc12` (single isomer, unassigned) [Compound 13b], for which the IC50 was above 1000 nM.

On to `COc1cnc(C(F)(F)F)cc1N1C[C@H](C#N)N(c2cncc3ccccc23)C1=O` (single isomer, unassigned) [Compound 14a], for which the IC50 was below 20 nM.

As for `COc1cnc(C(F)(F)F)cc1N1C[C@@H](C#N)N(c2cncc3ccccc23)C1=O` (single isomer, unassigned) [Compound 14b], the IC50 was above 1000 nM.

As to `COc1ccc(C#N)cc1N1C[C@H](C#N)N(c2cncc3ccccc23)C1=O` (single isomer, unassigned) [Compound 15a], the IC50 was below 20 nM.

Turning to `COc1ccc(C#N)cc1N1C[C@@H](C#N)N(c2cncc3ccccc23)C1=O` (single isomer, unassigned) [Compound 15b], the half-inhibitory concentration (IC50) is above 1000 nM.

Consider `N#C[C@H]1CN(c2ncc(Cl)cn2)C(=O)N1c1cncc2ccccc12` (single isomer, unassigned) [Compound 16a], for which the IC50 was below 20 nM.

Consider `N#C[C@@H]1CN(c2ncc(Cl)cn2)C(=O)N1c1cncc2ccccc12` (single isomer, unassigned) [Compound 16b], for which the IC50 was 200 to 1000 nM.

For `COc1ccc(C(F)(F)F)cc1N1C[C@H](C#N)N(c2cncc3ccccc23)C1=O` (single isomer, unassigned) [Compound 17a], the IC50 was below 20 nM.

Consider `COc1ccc(C(F)(F)F)cc1N1C[C@@H](C#N)N(c2cncc3ccccc23)C1=O` (single isomer, unassigned) [Compound 17b], for which the IC50 was above 1000 nM.

`N#Cc1cc(C(F)(F)F)ncc1N1C[C@H](C#N)N(c2cncc3ccccc23)C1=O` (single isomer, unassigned) [Compound 18a]: the IC50 was below 20 nM.

For the compound `N#Cc1cc(C(F)(F)F)ncc1N1C[C@@H](C#N)N(c2cncc3ccccc23)C1=O` (single isomer, unassigned) [Compound 18b], the IC50 is above 1000 nM.

As for `COc1cc(C#N)ccc1N1C[C@H](C#N)N(c2cncc3ccccc23)C1=O` (single isomer, unassigned) [Compound 19a], the half-inhibitory concentration (IC50) is below 20 nM.

Consider `COc1cc(C#N)ccc1N1C[C@@H](C#N)N(c2cncc3ccccc23)C1=O` (single isomer, unassigned) [Compound 19b], for which the IC50 is above 1000 nM.

Regarding `N#Cc1ccc(Cl)cc1N1C[C@H](C#N)N(c2cncc3ccccc23)C1=O` (single isomer, unassigned) [Compound 20a], the IC50 was below 20 nM.

As to `N#Cc1ccc(Cl)cc1N1C[C@@H](C#N)N(c2cncc3ccccc23)C1=O` (single isomer, unassigned) [Compound 20b], the IC50 was above 1000 nM.

In the case of `Cc1ccc(F)cc1N1C[C@H](C#N)N(c2cncc3ccccc23)C1=O` (single isomer, unassigned) [Compound 21a], the IC50 was below 20 nM.

For the compound `Cc1ccc(F)cc1N1C[C@@H](C#N)N(c2cncc3ccccc23)C1=O` (single isomer, unassigned) [Compound 21b], the IC50 is above 1000 nM.

As to `N#C[C@H]1CN(c2cccc(C(F)F)c2)C(=O)N1c1cncc2ccccc12` (single isomer, unassigned) [Compound 22a], the IC50 was below 20 nM.

Consider `N#C[C@@H]1CN(c2cccc(C(F)F)c2)C(=O)N1c1cncc2ccccc12` (single isomer, unassigned) [Compound 22b], for which the IC50 was above 1000 nM.

For `COc1cc(N2C[C@H](C#N)N(c3cncc4ccccc34)C2=O)ccn1` (single isomer, unassigned) [Compound 23a], the IC50 is below 20 nM.

In the case of `COc1cc(N2C[C@@H](C#N)N(c3cncc4ccccc34)C2=O)ccn1` (single isomer, unassigned) [Compound 23b], the IC50 is above 1000 nM.

As for `Cc1ccc(C(F)(F)F)cc1N1C[C@H](C#N)N(c2cncc3ccccc23)C1=O` (single isomer, unassigned) [Compound 24a], the IC50 was below 20 nM.

In the case of `Cc1ccc(C(F)(F)F)cc1N1C[C@@H](C#N)N(c2cncc3ccccc23)C1=O` (single isomer, unassigned) [Compound 24b], the IC50 is above 1000 nM.
